Assay results reported in US10975068B2, “6-aminopyridin-3-yl thiazoles as modulators of RORγT” (Janssen Pharmaceutica NV, priority 2016, dated 2021).
Like-named read-outs stand apart in the source and are kept apart here.

Key:
full-length human RORγt = full-length human RORγt (Homo sapiens (Human), UniProt P51449); assay: RORγt (full-length human) reporter assay, Conditions B or C; assay type: cell-based; conditions: for inhibition at 3 µM: at 3 μM compound concentration; for RORγt (FL) Reporter Assay B or C, % inhibition (value marked *): marked *: footnote not given
Procedure, shortened: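 HEK293T cells transiently co-transfected with GAL4-DBD–full-length human RORγt (nt 142-1635, NM_001001523.1) plus GAL4-firefly and CMV-Renilla luciferase reporters; compounds added 4-6 h post-transfection for 16-20 h in 1.3% FBS, 0.1% DMSO. Firefly signal normalized to DMSO and saturating reference compound, then to Renilla; IC50 from concentration plots.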

[1] = target: human RORγt ligand binding domain (RORγt LBD) (Homo sapiens (Human), UniProt P51449); assay: RORγt ThermoFluor® assay (thermal shift binding)
Procedure, shortened: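 His-tagged human RORγt LBD (0.065 mg/mL) with 60 μM 1,8-ANS in 100 mM Hepes pH 7.0, 10 mM NaCl, 2.5 mM GSH, 0.002% Tween-20 was heated at 1 °C/min.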

[2] = read-out: RORγt (FL) Reporter Assay B or C, % inhibition
[3] = read-out: RORγt (FL) Reporter Assay B or C, IC50
[4] = read-out: ThermoFluor® Assay, Kd
[5] = Conditions B or C, read-out: RORγt (FL) Reporter Assay B or C, IC50

Chain of full-length human RORγt (P51449 other isoform, or with tags, fused parts or gaps): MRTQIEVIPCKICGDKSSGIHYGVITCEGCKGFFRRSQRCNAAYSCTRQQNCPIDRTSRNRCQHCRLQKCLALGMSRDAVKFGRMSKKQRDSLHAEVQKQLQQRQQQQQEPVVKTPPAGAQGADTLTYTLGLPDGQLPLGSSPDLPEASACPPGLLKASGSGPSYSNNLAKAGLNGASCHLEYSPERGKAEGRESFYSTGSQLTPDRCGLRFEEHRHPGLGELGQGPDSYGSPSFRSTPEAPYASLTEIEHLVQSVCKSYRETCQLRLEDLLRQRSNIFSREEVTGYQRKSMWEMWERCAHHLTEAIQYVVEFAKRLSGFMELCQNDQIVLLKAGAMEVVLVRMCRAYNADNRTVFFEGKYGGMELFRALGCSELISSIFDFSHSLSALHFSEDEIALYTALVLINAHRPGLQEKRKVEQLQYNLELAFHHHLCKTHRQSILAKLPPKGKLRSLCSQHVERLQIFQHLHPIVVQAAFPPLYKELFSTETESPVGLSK
Chain of human RORγt ligand binding domain (RORγt LBD) (P51449 other isoform, or with tags, fused parts or gaps): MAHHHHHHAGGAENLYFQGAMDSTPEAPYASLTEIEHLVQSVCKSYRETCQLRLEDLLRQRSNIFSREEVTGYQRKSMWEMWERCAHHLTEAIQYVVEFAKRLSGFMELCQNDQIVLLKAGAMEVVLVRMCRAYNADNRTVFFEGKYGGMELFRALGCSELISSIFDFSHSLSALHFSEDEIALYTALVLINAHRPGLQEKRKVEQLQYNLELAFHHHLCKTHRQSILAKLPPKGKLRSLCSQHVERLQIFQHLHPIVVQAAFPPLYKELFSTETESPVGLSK

Structure (SMILES) | inhibition at 3 µM (full-length human RORγt; [2]) | IC50 (full-length human RORγt; [3]) | Kd [1, 4] | other results
CC[C@H](Nc1cc(C(F)F)c(-c2sc(C(=O)N[C@H]3C[C@H](O)C3)nc2C(=O)N2CC(F)(F)C[C@@H]2C)cn1)C(F)(F)F [Example 449, 4-((S)-4,4-Difluoro-2-methylpyrrolidine-1-carbonyl)-5-(4-(difluoromethyl)-6-(((S)-1,1,1-trifluorobutan-2-yl)amino)pyridin-3-yl)-N-((1R,3S)-3-hydroxycyclobutyl)thiazole-2-carboxamide] | 108% | 21 nM | 2.1 nM | 
C[C@H]1CCCN1C(=O)c1nc(C(=O)N2CC(C)(O)C2)sc1-c1cnc(NC(C)(C)C)cc1C(F)(F)F [Example 268, [5-[6-(tert-Butylamino)-4-(trifluoromethyl)-3-pyridyl]-2-(3-hydroxy-3-methyl-azetidine-1-carbonyl)thiazol-4-yl]-[(2S)-2-methylpyrrolidin-1-yl]methanone] | 109% | 110 nM | 2.4 nM | 
CCC(C)(C)Nc1cc(C(F)F)c(-c2sc(C(=O)NCC(C)(C)O)nc2C(=O)N2CC(F)(F)C[C@@H]2C)cn1 [Example 94, (S)-4-(4,4-Difluoro-2-methylpyrrolidine-1-carbonyl)-5-(4-(difluoromethyl)-6-(tert-pentylamino)pyridin-3-yl)-N-(2-hydroxy-2-methylpropyl)thiazole-2-carboxamide] |  |  | 0.36 nM | RORγt (FL) Reporter Assay B or C, % inhibition (value marked *) (full-length human RORγt; Conditions B or C): 115* %; IC50 (full-length human RORγt; [5]): 12 nM
O=C(N[C@H]1CCC[C@@H]1O)c1nc(C(=O)N2C3CCC2CC3)c(-c2cnc(N[C@@H](C3CC3)C(F)(F)F)cc2C(F)F)s1 [Example 451, 4-(7-Azabicyclo[2.2.1]heptane-7-carbonyl)-5-[6-[[(1S)-1-cyclopropyl-2,2,2-trifluoro-ethyl]amino]-4-(difluoromethyl)-3-pyridyl]-N-[(1S,2S)-2-hydroxycyclopentyl]thiazole-2-carboxamide] | 99% | 290 nM | 0.29 nM | 
C[C@H]1CCCN1C(=O)c1nc(C(=O)N2CC(CO)C2)sc1-c1cnc(NC(C)(C)C)cc1C(F)(F)F [Example 249, [5-[6-(tert-Butylamino)-4-(trifluoromethyl)-3-pyridyl]-2-[3-(hydroxymethyl)azetidine-1-carbonyl]thiazol-4-yl]-[(2S)-2-methylpyrrolidin-1-yl]methanone] | 103% | 24 nM | 8.1 nM | 
C[C@H]1CC(F)(F)CN1C(=O)c1nc(C(=O)N[C@H](C)C(C)(C)O)sc1-c1cnc(NC2(C)CCC2)cc1C(F)(F)F [Example 196, 4-((S)-4,4-Difluoro-2-methylpyrrolidine-1-carbonyl)-N—((R)-3-hydroxy-3-methylbutan-2-yl)-5-(6-((1-methhylcyclobutyl)amino)-4-(trifluoromethyl)pyridine-3-yl)thiazole-2-carboxamide] |  |  | 0.64 nM | RORγt (FL) Reporter Assay B or C, % inhibition (value marked *) (full-length human RORγt; Conditions B or C): 109* %; IC50 (full-length human RORγt; [5]): 27 nM
C[C@H](Nc1cc(C(F)(F)F)c(-c2sc(C(=O)N[C@H]3COC[C@H]3O)nc2C(=O)N2C3CCC2CC3)cn1)C(F)(F)F (single isomer, unassigned) [Example 255, 4-((1s,4s)-7-Azabicyclo[2.2.1]heptane-7-carbonyl)-N-((3S*,4S*)-4-hydroxytetrahydrofuran-3-yl)-5-(4-(trifluoromethyl)-6-(((S)-1,1,1-trifluoropropan-2-yl)amino)pyridin-3-yl)thiazole-2-carboxamide] |  |  |  | IC50 (full-length human RORγt; RORγt (FL) Reporter Assay B or C, IC50): 160 nM; inhibition at 1 µM (full-length human RORγt; at 1 μM compound concentration, read-out: RORγt (FL) Reporter Assay B or C, % inhibition): 78%; Kd ([1]; ThermoFluor® Assay, Kd): 16 nM
C[C@H](Nc1cc(C(F)F)c(-c2sc(C(=O)NCC(C)(C)O)nc2C(=O)N2C3CCC2CC3)cn1)C1CC1 [Example 55, 4-((1s,4s)-7-Azabicyclo[2.2.1]heptane-7-carbonyl)-5-(6-(((S)-1-cyclopropylethyl)amino)-4-(difluoromethyl)pyridin-3-yl)-N-(2-hydroxy-2-methylpropyl)thiazole-2-carboxamide] |  |  | 7.9 nM | RORγt (FL) Reporter Assay B or C, % inhibition (value marked *) (full-length human RORγt; Conditions B or C): 92* %; IC50 (full-length human RORγt; [5]): 31 nM
CC(C)[C@@H](C)Nc1cc(C(F)F)c(-c2sc(C(=O)NCC(C)(C)O)nc2C(=O)N2CCC[C@@H]2C)cn1 [Example 297, 5-(4-(Difluoromethyl)-6-(((R)-3-methylbutan-2-yl)amino)pyridine-3-yl)-N-(2-hydroxy-2-methylpropyl)-4-((S)-2-methylpyrrolidine-1-carbonyl)thiazole-2-carboxamide] | 110% | 50 nM | 18 nM | 
CC[C@H](Nc1cc(C(F)F)c(-c2sc(C(=O)N[C@H]3CC[C@@H]3O)nc2C(=O)N2CCC[C@@H]2C)cn1)C(F)(F)F (relative stereo) [Example 377, 5-(4-(Difluoromethyl)-6-(((S)-1,1,1-trifluorobutan-2-yl)amino)pyridin-3-yl)-N-((1S*,2S*)-2-hydroxycyclobutyl)-4-((S)-2-methylpyrrolidine-1-carbonyl)thiazole-2-carboxamide] | 91% | 32 nM | 3.4 nM | 
CC[C@H](Nc1cc(C(F)F)c(-c2sc(C(=O)N[C@H]3CC[C@@H]3O)nc2C(=O)N2C3CCC2CC3)cn1)C(F)(F)F (relative stereo) [Example 406, 4-((1s,4s)-7-Azabicyclo[2.2.1]heptane-7-carbonyl)-5-(4-(difluoromethyl)-6-(((S)-1,1,1-trifluorobutan-2-yl)amino)pyridin-3-yl)-N-((1S*,2S*)-2-hydroxycyclobutyl)thiazole-2-carboxamide] |  | 81 nM | 2.7 nM | inhibition at 0.3 µM (full-length human RORγt; at 0.3 μM compound concentration, read-out: RORγt (FL) Reporter Assay B or C, % inhibition): 92%
C[C@H](Nc1cc(C(F)F)c(-c2sc(C(=O)N[C@@H]3CC[C@H]3O)nc2C(=O)N2C3CCC2CC3)cn1)C(F)(F)F (relative stereo) [Example 291, 4-((1s,4s)-7-Azabicyclo[2.2.1]heptane-7-carbonyl)-5-(4-(difluoromethyl)-6-(((S)-1,1,1-trifluoropropan-2-yl)amino)pyridin-3-yl)-N-((1R*,2R*)-2-hydroxycyclobutyl)thiazole-2-carboxamide] | 113% | 120 nM | 6.9 nM | 
C[C@H]1CCCN1C(=O)c1nc(C(=O)N[C@H](C)C(C)(C)O)sc1-c1cnc(NC(C)(C)C)cc1C(F)(F)F [Example 335, 5-[6-(tert-Butylamino)-4-(trifluoromethyl)-3-pyridyl]-N-[(1R)-2-hydroxy-1,2-dimethyl-propyl]-4-[(2S)-2-methylpyrrolidine-1-carbonyl]thiazole-2-carboxamide] | 102% | 40 nM | 1.3 nM | 
CC[C@H](Nc1cc(C(F)F)c(-c2sc(C(=O)N3CC4CCC(C3)O4)nc2C(=O)N2CCC[C@@H]2C)cn1)C(F)(F)F [Example 378, [5-[4-(Difluoromethyl)-6-[[(1S)-1-(trifluoromethyl)propyl]amino]-3-pyridyl]-2-(8-oxa-3-azabicyclo[3.2.1]octane-3-carbonyl)thiazol-4-yl]-[(2S)-2-methylpyrrolidin-1-yl]methanone] | 109% | 79 nM | 18 nM | 
CC(C)(O)CNC(=O)c1nc(C(=O)N2C3CCC2CC3)c(-c2cnc(NC3CCCC3)cc2C(F)F)s1 [Example 46, 4-((1s,4s)-7-Azabicyclo[2.2.1]heptane-7-carbonyl)-5-(6-(cyclopentylamino)-4-(difluoromethyl)pyridin-3-yl)-N-(2-hydroxy-2-methylpropyl)thiazole-2-carboxamide] |  |  | 4.2 nM | RORγt (FL) Reporter Assay B or C, % inhibition (value marked *) (full-length human RORγt; Conditions B or C): 100* %; IC50 (full-length human RORγt; [5]): 29 nM
O=C(N[C@@H]1CCC[C@H]1O)c1nc(C(=O)N2C3CCC2CC3)c(-c2cnc(N[C@@H](C3CC3)C(F)(F)F)cc2C(F)F)s1 [Example 439, 4-((1s,4s)-7-Azabicyclo[2.2.1]heptane-7-carbonyl)-5-[6-[[(1S)-1-cyclopropyl-2,2,2-trifluoro-ethyl]amino]-4-(difluoromethyl)-3-pyridyl]-N-[(1R,2R)-2-hydroxycyclopentyl]thiazole-2-carboxamide] | 102% | 10 nM | 0.27 nM | 
C[C@@H](Nc1cc(C(F)(F)F)c(-c2sc(C(=O)NCC(C)(C)O)nc2C(=O)N2CCC(F)CC2)cn1)C1CC1 [Example 29, (R)-5-(6-((1-Cyclopropylethyl)amino)-4-(trifluoromethyl)pyridin-3-yl)-4-(4-fluoropiperidine-1-carbonyl)-N-(2-hydroxy-2-methylpropyl)thiazole-2-carboxamide] |  |  | 22 nM | IC50 (full-length human RORγt; [5]): 22 nM; inhibition at 6 µM (full-length human RORγt; read-out: RORγt (FL) Reporter Assay B or C, % inhibition @ 6 μM, Conditions B or C, @ 6 μM): 105%
C[C@H]1CCCN1C(=O)c1nc(C(=O)N2CC[C@@H](O)C2)sc1-c1cnc(NC(C)(C)C)cc1C(F)(F)F [Example 349, [5-[6-(tert-Butylamino)-4-(trifluoromethyl)-3-pyridyl]-2-[(3R)-3-hydroxypyrrolidine-1-carbonyl]thiazol-4-yl]-[(2S)-2-methylpyrrolidin-1-yl]methanone] | 105% | 63 nM | 11 nM | 
